Entries after “also recorded” stand apart in the source; their conditions may differ.
Assays:
[1] = test system: HF57; assay: Embryoid body formation from SSEA4 positive sorted cells (FIG. 27); assay type: cell-based, human; conditions: treated 7 or more days, low methionine, mTeSR Plus + HT, after 15-days
Experimental: HEK293T and HF57 were treated with MTX and PTX for 7 or more days in low methionine condition. SSEA4 positive cells were sorted using cell sorter and maintained on mTeSR™ Plus medium supplemented with HT.

[2] = test system: human embryonic kidney cells (293T); assay: Cell proliferation under prolonged MTX/PTX application, with or without HT (FIG. 16); assay type: cell-based; conditions: for cell proliferation: prolonged, controlled application, 5% dialyzed-FBS DMEM, 500 nM MTX for 7-days
Experimental: (§1) The cells were grown in 5% dialyzed-FBS DMEM medium. 293T cells were treated with 500 nM MTX, and HF57 cells and HDF cells were treated with 1 μM MTX for 7-days. Because inhibition of DHFR and TS by folate antagonists (MTX, PTX) results in a deficiency in the cellular pools of thymidylate and purines and thus a decrease in nucleic acid synthesis, sodium hypoxanthine (10 mM) and thymidine (1.6 mM) were added to the medium to overcome the effects of MTX and PTX. […] The cells were harvested for DNA/RNA isolation and analyzed for gene expression and DNA methylation.
MTX and PTX are antifolates that inhibit enzymes (particularly thymidylate synthase and dihydrofolate reductase) involved in folate metabolism and purine and pyrimidine synthesis (100-103). Since these compounds are competitive inhibitors of […], these compounds were exogenously applied to the WT (HEK 293T and HF57) cells. As shown in FIGS. 16-17, application of MTX and PTX to the normal growing WT cells produced the phenotypes similar to the FPGS^ko. Several concentrations of MTX ranging from 75 nM to 500 nM were tested. The impact of MTX depended on the cell lines, exposure time, and the supplemental media. A concentration as low as 75 nM achieved similar results when a lower concentration of FBS was used, and the best results for 293T cells were obtained using MTX at a concentration ranging between 200 nM and 500 nM. Further, the pharmacological impacts of folate inhibitors on global DNA methylation were examined. 293T (control) cells were treated with 500 nM MTX and 1 μM PTX for at least 7 days before harvesting the cells and isolating the genomic DNA (gDNA). Equal amount of gDNA (100 ng) was analyzed with 5mC enzyme-linked immunosorbent assay (ELISA) (EpiGentek).

[3] = test system: human fibroblast (HF57) cells; assay: Immunofluorescence of pluripotency surface markers (FIG. 25, 26); assay type: cell-based; conditions: for SSEA-4 and TRA 1-60 surface markers immunofluorescence: 1 μM for 7 days, DMEM with low methionine (15 mg/L)
Experimental: Post MTX treatment, the cells were labeled using primary antibodies (ant-SSEA4-anti mouse IgG3) followed by secondary antibodies conjugated to Alexa Fluor 488 goat anti-mouse IgG3. The cells were counterstained with DAPI. […] The cells were grown in regular DMEM medium with or without MTX. Scale Bar=400 μM.
Post MTX treatment, the cells were labeled using primary antibodies (anti-SSEA4-anti mouse IgG3 and anti-TRA 1-60 host-rabbit) followed by secondary antibodies conjugated to (Alexa Fluor 488 goat anti-mouse IgG3 and Alexa Fluor 594 donkey anti-rabbit). The cells were counterstained with DAPI. […] The cells were grown in DMEM medium with low methionine (15 mg/L). Scale Bar=400 μM (FIG. 26A); Scale Bar=200 μM (FIG. 26B).
Immunofluorescence analysis: The relative optimal image-based analysis of 2 key human pluripotent stem cells markers [octamer-binding transcription factor 4 (OCT4) and stage-specific embryonic antigen 4 (SSEA4)] was performed using the Pluripotent Stem Cell Immunocytochemistry Kit (Thermo Fisher Scientific) according to the manufacturer's instructions. Briefly, the cells were grown in 10% FBS DMEM supplemented with NEAAs and Glutamax in wells coated with 0.1% gelatin. For immunofluorescence localization, the cells were stained for SSEA4 and Oct4 and counterstained with DAPI using the kit (Thermo Fisher Scientific). The endogenous proteins were labeled using primary antibodies (anti-SSEA4 anti-mouse IgG3 and anti-OCT4 host-rabbit) followed by secondary antibodies conjugated to Alexa Fluor 488 goat anti-mouse IgG3 and Alexa Fluor 594 donkey anti-rabbit.
The quiescent nature of the MTX and PTX cells and the association of demethylation with the generation of induced pluripotent stem cells led to examining markers for stem cells formation. The 293T and HF57 cells were grown on 5% dialyzed FBS DMEM medium. DMEM without methionine, DMEM with 15 mg/L (half dose) and DMEM with 30 mg/L (regular DMEM) were used to grow the cells. […] Subsequently, the cells were assessed for markers linked to stem cells. […]

[4] = test system: human fibroblast cells (HF57); assay: Cell proliferation under prolonged MTX/PTX application, with or without HT (FIG. 16); assay type: cell-based; conditions: controlled application, 5% dialyzed-FBS DMEM, 1 μM MTX for 7-days
Experimental: as §1

[5] = test system: human dermal fibroblast (HDF) cells; assay: as above; assay type: cell-based; conditions: controlled application, 5% dialyzed-FBS DMEM, 1 μM MTX for 7-days
Experimental: as §1

[6] = test system: 293T cells; assay: qRT-PCR relative transcript levels of ANKRD1 and ANOS (FIG. 22, 23); assay type: cell-based, human; conditions: vs control cells
Experimental: To validate microarray results, quantitative 2-step RT-PCR was performed. One microgram of total RNA was reverse transcribed to first-strand cDNA with the Qiagen cDNA Synthesis Kit (Qiagen), and this cDNA was subsequently used as a template for quantitative PCR with gene-specific primers. The ubiquitous β-actin gene served as a control for constitutive gene expression. The quantitative RT-PCR (qRT-PCR) reactions were performed using Power Sybr Green PCR Master Mix (Thermo Fisher Scientific) on a CFX96 Touch Real-Time PCR Detection System (Bio-Rad, Hercules, CA, USA). Relative expression levels (2^−ΔCt) were calculated according to the Livak and Schmittgen method (40). Expression levels of each gene were compared with the expression level of actin.

Row | SMILES | embryoid body formation [1] | cell proliferation [2] | concentration as low as which achieved similar results ([2]; when a lower concentration of FBS was used) [nM] | SSEA-4 surface antigen immunofluorescence ([3]; 1 μM for 9-days, regular DMEM, no signals in control cells) | SSEA-4 and TRA 1-60 surface markers immunofluorescence [3] | cell proliferation [4] | cell proliferation [5] | relative transcripts level of ANOS [6] | relative transcripts level of Ankyrin repeat domain 1 (ANKRD1) [6]
1 | CN(Cc1cnc2nc(N)nc(N)c2n1)c1ccc(C(=O)N[C@@H](CCC(=O)O)C(=O)O)cc1 [MTX, methotrexate] | start forming embryoid bodies | reduced cell proliferation | 75 | expression of SSEA-4 surface antigens | high levels of SSEA-4 and TRA 1-60; also recorded: expression of SSEA-4 and TRA 1-60 surface antigens | reduced cell proliferation | reduced cell proliferation | significantly higher | significantly higher
2 | Nc1nc2[nH]cc(CCc3ccc(C(=O)N[C@@H](CCC(=O)O)C(=O)O)cc3)c2c(=O)[nH]1 [PTX, pemetrexed] | start forming embryoid bodies | reduced cell proliferation | – | – | expression of SSEA-4 and TRA 1-60 surface markers | reduced cell proliferation | reduced cell proliferation | significantly higher | significantly higher
